This note sets out measurements from patent US20240383909A1, “CO-CRYSTALS” (INTRA-CELLULAR THERAPIES, INC., priority 2021, published 2024).

A short description of this data set: Aqueous solubility of co-crystals (saturated solutions in water, liquid chromatography). It counts as physicochemical. Conditions: thermodynamic from solid, time point not stated, read-out: solubility for the Free Base (comparison). The protocol: The aqueous solubility of the co-crystals is determined by creating saturated solutions containing individual co-crystals in water. The saturated solutions are shaken for 24 hours at room temperature. Samples are taken at two timepoints (2 hours and 24 hours) and are filtered and diluted (acetonitrile/water 1:1) before measurement with liquid chromatography.

≈ marks a conversion by molar mass, not a printed value.

For orientation: solubility means the dissolved amount per volume that the medium holds. Regarding `CN1C(=O)c2c(nn(Cc3ccc(-c4cccc(F)n4)cc3)c2Nc2ccccc2)N2C1=N[C@@H]1CCC[C@@H]12` [Free Base, (6aR,9aS)-5,6a,7,8,9,9a-hexahydro-5-methyl-3-(phenylamino)-2-((4-(6-fluoropyridin-2-yl)phenyl)methyl)-cyclopent[4,5]imidazo[1,2-a]pyrazolo[4,3-e]pyrimidin-4(2H)-one], the solubility turned out to be 1 µg/mL (≈ 1.97 µM).
